Series [1] has as its target PI3kγ (Homo sapiens, UniProt P48736). Kind of series: Fluorescent (HTRF) determination of PI3 kinase enzyme activity, PI3Kγ. In kind it is biochemical. To be noted: for inhibition at 0.3 µM: 300 nM (Examples 1-59). In outline: (§1)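 Compounds tested at 1 μM on α and β isoforms and at 0.3 or 0.1 μM on γ and δ, with percent inhibition from blank and enzyme controls, plus IC50 fits. Room-temperature reaction: 10 min enzyme–compound preincubation in MgCl2/DTT buffer with 1.38 μM PIP2, then 30 min after 400 μM ATP addition; PIP3 read by HTRF (665/620 nm).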
Background: In TR-FRET formats the signal depends on donor and acceptor labels being close together.

Series [2] addresses PI3kδ (Homo sapiens, UniProt O00329). Kind of series: Fluorescent (HTRF) determination of PI3 kinase enzyme activity, PI3Kδ. The class given is biochemical. As to conditions: for inhibition at 0.3 µM: 300 nM (Examples 1-59). In outline: as §1
Series [3] concerns the target PI3kα (Homo sapiens, UniProt P42336). Kind of series: Fluorescent (HTRF) determination of PI3 kinase enzyme activity, PI3Kα. In kind it is biochemical. To be noted: 1 uM. In outline:
as §1

Series [4] concerns the target PI3kβ (Homo sapiens, UniProt P42338). Kind of series: Fluorescent (HTRF) determination of PI3 kinase enzyme activity, PI3Kβ. The class given is biochemical. As to conditions: 1 uM. The method, boiled down:
as §1

Counter-ions that a name gives are not always drawn.

PI3kβ, sequence (P42338 whole entry): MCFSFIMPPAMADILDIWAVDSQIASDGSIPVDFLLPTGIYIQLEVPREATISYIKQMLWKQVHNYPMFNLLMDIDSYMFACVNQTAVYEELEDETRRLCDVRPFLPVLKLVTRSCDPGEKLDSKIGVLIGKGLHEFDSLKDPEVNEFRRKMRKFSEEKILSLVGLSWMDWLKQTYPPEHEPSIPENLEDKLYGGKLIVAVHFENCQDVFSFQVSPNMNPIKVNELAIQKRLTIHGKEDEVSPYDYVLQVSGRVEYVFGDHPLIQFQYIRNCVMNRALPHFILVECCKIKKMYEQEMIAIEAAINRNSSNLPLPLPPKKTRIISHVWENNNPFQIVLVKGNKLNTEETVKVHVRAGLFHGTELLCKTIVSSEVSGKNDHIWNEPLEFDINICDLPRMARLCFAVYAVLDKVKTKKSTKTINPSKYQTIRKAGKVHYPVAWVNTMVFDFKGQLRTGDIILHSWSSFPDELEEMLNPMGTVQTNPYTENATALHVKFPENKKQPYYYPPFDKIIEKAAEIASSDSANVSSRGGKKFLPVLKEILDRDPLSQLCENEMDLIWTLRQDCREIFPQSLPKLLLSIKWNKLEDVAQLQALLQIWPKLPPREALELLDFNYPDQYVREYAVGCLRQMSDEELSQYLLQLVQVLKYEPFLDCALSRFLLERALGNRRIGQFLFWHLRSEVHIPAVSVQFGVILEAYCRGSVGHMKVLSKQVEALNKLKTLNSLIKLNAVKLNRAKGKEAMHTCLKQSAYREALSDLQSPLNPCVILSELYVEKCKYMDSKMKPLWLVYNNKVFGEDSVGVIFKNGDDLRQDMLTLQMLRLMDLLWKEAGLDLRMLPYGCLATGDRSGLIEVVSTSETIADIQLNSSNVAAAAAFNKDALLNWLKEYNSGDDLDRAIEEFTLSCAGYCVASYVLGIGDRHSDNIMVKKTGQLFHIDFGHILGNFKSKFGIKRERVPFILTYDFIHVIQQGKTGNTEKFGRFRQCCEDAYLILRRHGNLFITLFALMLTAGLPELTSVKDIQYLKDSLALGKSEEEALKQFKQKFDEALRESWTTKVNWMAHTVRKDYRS
PI3kβ, sequence (P27986 whole entry partner): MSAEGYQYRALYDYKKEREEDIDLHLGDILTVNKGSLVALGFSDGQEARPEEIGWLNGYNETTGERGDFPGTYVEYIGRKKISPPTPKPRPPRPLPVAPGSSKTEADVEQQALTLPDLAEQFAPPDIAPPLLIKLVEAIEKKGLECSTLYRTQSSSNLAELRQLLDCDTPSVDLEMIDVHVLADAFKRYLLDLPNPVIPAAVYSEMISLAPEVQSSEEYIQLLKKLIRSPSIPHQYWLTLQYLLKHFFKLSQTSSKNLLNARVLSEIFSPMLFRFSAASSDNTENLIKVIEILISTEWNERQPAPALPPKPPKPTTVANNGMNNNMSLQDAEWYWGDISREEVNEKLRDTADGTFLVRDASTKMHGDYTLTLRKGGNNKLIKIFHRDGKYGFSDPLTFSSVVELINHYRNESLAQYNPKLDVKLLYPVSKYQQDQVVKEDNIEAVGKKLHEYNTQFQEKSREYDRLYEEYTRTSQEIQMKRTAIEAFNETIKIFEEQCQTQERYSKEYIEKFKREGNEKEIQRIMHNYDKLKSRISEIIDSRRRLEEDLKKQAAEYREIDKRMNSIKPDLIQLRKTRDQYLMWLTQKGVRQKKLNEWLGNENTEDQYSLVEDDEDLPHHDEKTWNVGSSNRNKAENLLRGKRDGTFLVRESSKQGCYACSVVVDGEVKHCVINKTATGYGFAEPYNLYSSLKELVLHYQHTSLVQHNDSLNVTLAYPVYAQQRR
PI3kδ, sequence (O00329 whole entry): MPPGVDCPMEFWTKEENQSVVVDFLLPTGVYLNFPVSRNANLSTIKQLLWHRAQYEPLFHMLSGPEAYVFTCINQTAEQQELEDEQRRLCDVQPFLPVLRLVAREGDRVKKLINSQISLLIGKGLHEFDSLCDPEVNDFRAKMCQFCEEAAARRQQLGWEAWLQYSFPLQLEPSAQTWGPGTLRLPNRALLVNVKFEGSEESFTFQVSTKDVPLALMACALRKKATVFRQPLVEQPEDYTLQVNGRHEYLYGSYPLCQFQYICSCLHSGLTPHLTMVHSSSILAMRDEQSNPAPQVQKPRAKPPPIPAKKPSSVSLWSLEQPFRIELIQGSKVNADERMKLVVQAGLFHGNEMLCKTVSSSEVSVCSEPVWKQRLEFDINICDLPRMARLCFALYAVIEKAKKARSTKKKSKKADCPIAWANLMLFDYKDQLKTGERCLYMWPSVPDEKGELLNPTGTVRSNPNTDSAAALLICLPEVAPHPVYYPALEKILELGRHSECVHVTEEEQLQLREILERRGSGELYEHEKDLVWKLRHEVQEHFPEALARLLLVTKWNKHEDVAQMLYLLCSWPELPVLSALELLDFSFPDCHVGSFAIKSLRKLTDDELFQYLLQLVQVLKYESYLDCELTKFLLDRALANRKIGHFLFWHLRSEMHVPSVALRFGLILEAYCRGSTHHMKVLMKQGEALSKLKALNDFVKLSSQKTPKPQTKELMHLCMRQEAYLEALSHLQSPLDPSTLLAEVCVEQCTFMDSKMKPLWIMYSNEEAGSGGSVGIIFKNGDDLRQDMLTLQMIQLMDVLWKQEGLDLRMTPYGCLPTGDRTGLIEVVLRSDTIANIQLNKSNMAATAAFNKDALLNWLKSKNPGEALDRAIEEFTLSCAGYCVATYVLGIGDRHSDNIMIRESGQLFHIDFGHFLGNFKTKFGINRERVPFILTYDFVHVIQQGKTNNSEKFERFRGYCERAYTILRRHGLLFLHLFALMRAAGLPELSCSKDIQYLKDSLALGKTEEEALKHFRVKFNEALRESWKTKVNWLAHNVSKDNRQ
PI3kδ, sequence (P27986 whole entry partner): as the sequence (P27986 whole entry partner) above
PI3kα, sequence (P42336 whole entry): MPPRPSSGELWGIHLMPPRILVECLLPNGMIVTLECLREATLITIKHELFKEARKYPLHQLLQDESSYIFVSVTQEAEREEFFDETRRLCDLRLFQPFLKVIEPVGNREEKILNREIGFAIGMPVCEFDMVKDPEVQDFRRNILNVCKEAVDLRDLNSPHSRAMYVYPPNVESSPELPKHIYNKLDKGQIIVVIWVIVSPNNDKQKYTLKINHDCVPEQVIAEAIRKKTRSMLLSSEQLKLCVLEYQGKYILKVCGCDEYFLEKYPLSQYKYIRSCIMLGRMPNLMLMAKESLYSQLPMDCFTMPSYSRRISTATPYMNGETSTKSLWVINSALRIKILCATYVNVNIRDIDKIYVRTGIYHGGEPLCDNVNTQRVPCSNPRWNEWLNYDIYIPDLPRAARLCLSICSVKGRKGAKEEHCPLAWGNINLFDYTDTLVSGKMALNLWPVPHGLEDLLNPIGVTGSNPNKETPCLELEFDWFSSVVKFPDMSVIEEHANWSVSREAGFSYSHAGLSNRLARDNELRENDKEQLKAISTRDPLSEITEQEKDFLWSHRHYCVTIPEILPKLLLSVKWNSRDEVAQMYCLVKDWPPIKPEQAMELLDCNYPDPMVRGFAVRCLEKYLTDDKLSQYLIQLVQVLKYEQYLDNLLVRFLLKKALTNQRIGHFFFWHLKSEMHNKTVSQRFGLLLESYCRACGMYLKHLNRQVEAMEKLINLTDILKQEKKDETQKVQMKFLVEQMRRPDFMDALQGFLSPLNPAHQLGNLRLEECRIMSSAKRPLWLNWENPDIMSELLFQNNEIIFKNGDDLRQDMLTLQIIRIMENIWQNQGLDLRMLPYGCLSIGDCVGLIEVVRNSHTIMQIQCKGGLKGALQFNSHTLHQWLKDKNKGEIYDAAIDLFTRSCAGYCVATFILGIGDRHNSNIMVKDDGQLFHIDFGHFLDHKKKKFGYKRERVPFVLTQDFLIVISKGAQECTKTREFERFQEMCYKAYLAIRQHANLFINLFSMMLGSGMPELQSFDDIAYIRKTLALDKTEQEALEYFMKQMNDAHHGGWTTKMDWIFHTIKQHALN
PI3kα, sequence (P27986 whole entry partner): as the sequence (P27986 whole entry partner) above
PI3kγ, sequence (P48736 whole entry, canonical isoform): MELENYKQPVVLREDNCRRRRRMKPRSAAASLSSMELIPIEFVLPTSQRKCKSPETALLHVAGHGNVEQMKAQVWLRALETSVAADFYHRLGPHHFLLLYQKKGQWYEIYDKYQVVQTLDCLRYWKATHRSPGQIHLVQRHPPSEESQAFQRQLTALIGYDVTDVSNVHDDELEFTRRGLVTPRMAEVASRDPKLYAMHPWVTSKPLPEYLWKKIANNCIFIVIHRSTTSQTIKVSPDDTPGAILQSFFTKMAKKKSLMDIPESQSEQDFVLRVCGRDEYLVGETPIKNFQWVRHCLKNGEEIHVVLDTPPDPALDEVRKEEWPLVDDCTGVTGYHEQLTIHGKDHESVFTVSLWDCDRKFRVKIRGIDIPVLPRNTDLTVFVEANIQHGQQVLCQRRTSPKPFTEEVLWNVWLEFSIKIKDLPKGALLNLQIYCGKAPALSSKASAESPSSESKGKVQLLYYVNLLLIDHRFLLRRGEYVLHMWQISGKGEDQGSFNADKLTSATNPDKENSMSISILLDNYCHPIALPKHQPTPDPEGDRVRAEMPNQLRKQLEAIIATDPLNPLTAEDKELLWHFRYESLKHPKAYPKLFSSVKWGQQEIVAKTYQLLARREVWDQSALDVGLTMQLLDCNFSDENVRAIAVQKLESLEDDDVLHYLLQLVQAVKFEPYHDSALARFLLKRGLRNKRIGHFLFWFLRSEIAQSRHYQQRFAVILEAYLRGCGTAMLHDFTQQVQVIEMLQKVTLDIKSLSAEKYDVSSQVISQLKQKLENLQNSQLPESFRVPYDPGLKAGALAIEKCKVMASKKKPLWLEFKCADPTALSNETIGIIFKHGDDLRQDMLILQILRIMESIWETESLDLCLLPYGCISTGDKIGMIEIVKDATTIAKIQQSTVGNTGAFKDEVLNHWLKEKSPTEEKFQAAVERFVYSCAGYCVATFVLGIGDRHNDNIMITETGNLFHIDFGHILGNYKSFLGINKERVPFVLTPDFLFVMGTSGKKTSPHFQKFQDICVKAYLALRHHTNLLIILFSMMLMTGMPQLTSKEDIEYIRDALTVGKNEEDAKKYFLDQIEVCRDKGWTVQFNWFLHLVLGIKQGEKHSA

One may read the melting point as the temperature, or range, at which the solid turns liquid. Turning to `Cc1ccccc1-c1c(C(C)Nc2ncnc3[nH]cnc23)oc2cccc(F)c2c1=O` (stereo not drawn) [Example 138, 2-(1-(9H-purin-6-ylamino)ethyl)-5-fluoro-3-o-tolyl-4H-chromen-4-one], the melting point lay in the range of 275 to 277 °C.
Still for that read-out and setting: the value for `CC(c1oc2cccc(F)c2c(=O)c1-c1cccc(F)c1)n1cnc2c(N)nc(F)nc21` (stereo not drawn) (as salt: potassium) [Example 106, 2-(1-(6-amino-2-fluoro-9H-purin-9-yl)ethyl)-5-fluoro-3-(3-fluorophenyl)-4H-chromen-4-one] was 255 to 258 °C; that for `C[C@H](c1oc2cccc(F)c2c(=O)c1-c1cccc(F)c1)n1ncc2c(N)ncnc21` [Example 16b, (−)-2-(1-(4-amino-1H-pyrazolo[3,4-d]pyrimidin-1-yl)ethyl)-5-fluoro-3-(3-fluorophenyl)-4H-chromen-4-one] was 198 to 201 °C.
Broadly, the inhibition is the relative decrease from the control value, in per cent. In turn, `CC(c1oc2cccc(F)c2c(=O)c1-c1cccc(F)c1)n1nc(-c2ccc3nccn3c2)c2c(N)ncnc21` (stereo not drawn) [Example 73, 2-(1-(4-amino-3-(imidazo[1,2-a]pyridin-6-yl)-1H-pyrazolo[3,4-d]pyrimidin-1-yl)ethyl)-5-fluoro-3-(3-fluorophenyl)-4H-chromen-4-one] showed a melting point of 317 to 320 °C. This compound also showed an inhibition at 0.1 µM in series [1] (100 nM (Examples 60-137)) of 25 to 50%. The compound further came in with an inhibition at 0.1 µM in series [2] (100 nM (Examples 60-137)) of 25 to 50%.
The compound `CNc1ncnc2c1ncn2C(C)c1oc2cccc(F)c2c(=O)c1-c1cccc(F)c1` (stereo not drawn) (as salt: potassium) [Example 111, 5-fluoro-3-(3-fluorophenyl)-2-(1-(6-(methylamino)-9H-purin-9-yl)ethyl)-4H-chromen-4-one] yielded a melting point of 207 to 209 °C.
`Cc1cc(-c2nn(C(C)c3oc4cccc(F)c4c(=O)c3-c3cccc(F)c3)c3ncnc(N)c23)ccc1OC(C)C` (stereo not drawn) (as salt: sodium) [Example 50, 2-(1-(4-amino-3-(4-isopropoxy-3-methylphenyl)-1H-pyrazolo[3,4-d]pyrimidin-1-yl)ethyl)-5-fluoro-3-(3-fluorophenyl)-4H-chromen-4-one] displayed a melting point of 185 to 188 °C.
Regarding `CC(c1oc2cccc(F)c2c(=O)c1-c1cccc(F)c1)n1nc(-c2ccc3c(c2)C(=O)NC3)c2c(N)ncnc21` (stereo not drawn) [Example 122, 6-(4-amino-1-(1-(5-fluoro-3-(3-fluorophenyl)-4-oxo-4H-chromen-2-yl)ethyl)-1H-pyrazolo[3,4-d]pyrimidin-3-yl)isoindolin-1-one], the melting point was 242 to 245 °C. Moreover, in series [1] (100 nM (Examples 60-137)), the inhibition at 0.1 µM lay within 0 to 25%. Further, the inhibition at 0.1 µM in series [2] (100 nM (Examples 60-137)) fell in the range of 25 to 50%.
In turn, `CC(C)NC(=O)c1ccc(-c2nn(C(C)c3oc4cccc(F)c4c(=O)c3-c3cccc(F)c3)c3ncnc(N)c23)cc1F` (stereo not drawn) [Example 53, 4-(4-amino-1-(1-(5-fluoro-3-(3-fluorophenyl)-4-oxo-4H-chromen-2-yl)ethyl)-1H-pyrazolo[3,4-d]pyrimidin-3-yl)-2-fluoro-N-isopropylbenzamide] displayed a melting point of 254 to 257 °C. Further, the inhibition at 0.3 µM in series [1] was 50 to 75%. In addition, the inhibition at 0.3 µM in series [2] is 0 to 25%.
As to `CC(C)Oc1ccc(-c2nn(C(C)c3oc4cccc(N5CCOCC5)c4c(=O)c3-c3cccc(F)c3)c3ncnc(N)c23)cc1F` (stereo not drawn) [Example 120, 2-(1-(4-amino-3-(3-fluoro-4-isopropoxyphenyl)-1H-pyrazolo[3,4-d]pyrimidin-1-yl)ethyl)-3-(3-fluorophenyl)-5-morpholino-4H-chromen-4-one], the melting point was in the range of 227 to 229 °C. The compound also returned an inhibition at 0.1 µM in series [1] (100 nM (Examples 60-137)) of 0 to 25%. The same compound had an inhibition at 0.1 µM in series [2] (100 nM (Examples 60-137)) of 0 to 25%.
`CC(c1oc2cccc(F)c2c(=O)c1-c1cccc(F)c1)n1nc(-c2ccc(C3=NCCCO3)cc2)c2c(N)ncnc21` (stereo not drawn) [Example 51, 2-(1-(4-amino-3-(4-(5,6-dihydro-4H-1,3-oxazin-2-yl)phenyl)-1H-pyrazolo[3,4-d]pyrimidin-1-yl)ethyl)-5-fluoro-3-(3-fluorophenyl)-4H-chromen-4-one] came in with a melting point of 228 to 230 °C. This compound showed an inhibition at 0.3 µM in series [1] of 50 to 75%. This compound had an inhibition at 0.3 µM in series [2] of 25 to 50%.
In turn, `CC(c1oc2cccc(F)c2c(=O)c1-c1cccc(F)c1)n1nc(-c2ccc(S(=O)(=O)NC3CC3)cc2)c2c(N)ncnc21` (stereo not drawn) [Example 57, 4-(4-amino-1-(1-(5-fluoro-3-(3-fluorophenyl)-4-oxo-4H-chromen-2-yl)ethyl)-1H-pyrazolo[3,4-d]pyrimidin-3-yl)-N-cyclopropylbenzenesulfonamide] returned a melting point of 225 to 228 °C. Also, the inhibition at 0.3 µM in series [1] fell in the range of 50 to 75%. In series [2], this compound gave an inhibition at 0.3 µM of 0 to 25%.
As for `COc1nc(N[C@H](C)c2oc3cccc(F)c3c(=O)c2-c2cccc(F)c2)c2nc[nH]c2n1` (single isomer, unassigned) [Example 135], the melting point is 219 to 222 °C. This compound also registered an inhibition at 0.1 µM in series [1] (100 nM (Examples 60-137)) of 25 to 50%. Further, the inhibition at 0.1 µM in series [2] (100 nM (Examples 60-137)) was in the range of 25 to 50%.
In turn, `CC(c1oc2cccc(F)c2c(=O)c1-c1cccc(F)c1)n1nc(-c2ccc(CNS(C)(=O)=O)cc2)c2c(N)ncnc21` (stereo not drawn) [Example 55, N-(4-(4-amino-1-(1-(5-fluoro-3-(3-fluorophenyl)-4-oxo-4H-chromen-2-yl)ethyl)-1H-pyrazolo[3,4-d]pyrimidin-3-yl)benzyl)methanesulfonamide] yielded a melting point of 252 to 255 °C. Also, in series [1], the inhibition at 0.3 µM lay in the range of 50 to 75%. The inhibition at 0.3 µM in series [2] lay in the range of 25 to 50%.
With `CC(c1oc2cccc(F)c2c(=O)c1-c1cn[nH]c1)n1nc(-c2ccc(OC(F)F)c(F)c2)c2c(N)ncnc21` (stereo not drawn) [Example 91, 2-(1-(4-amino-3-(4-(difluoromethoxy)-3-fluorophenyl)-1H-pyrazolo[3,4-d]pyrimidin-1-yl)ethyl)-5-fluoro-3-(1H-pyrazol-4-yl)-4H-chromen-4-one], the melting point was in the range of 135 to 138 °C. This compound gave an inhibition at 0.1 µM in series [1] (100 nM (Examples 60-137)) of 25 to 50%. In series [2] (100 nM (Examples 60-137)), this compound returned an inhibition at 0.1 µM of 25 to 50%.
As a reminder, the IC50 is the concentration at which inhibition is half-maximal. Low values mean greater potency, high ones weaker potency. Compound `CNc1ncnc2c1c(-c1ccc(OC(C)C)c(F)c1)nn2C(C)c1oc2cccc(F)c2c(=O)c1-c1cccc(F)c1` (stereo not drawn) [Example 84, 5-fluoro-2-(1-(3-(3-fluoro-4-isopropoxyphenyl)-4-(methylamino)-1H-pyrazolo[3,4-d]pyrimidin-1-yl)ethyl)-3-(3-fluorophenyl)-4H-chromen-4-one] gave a melting point of 193 to 196 °C. In series [1], this compound returned an IC50 above 500 nM. Also, the “% inhibition (PI3kγ) 100 nM” value in series [1] (100 nM (Examples 60-137)) was “C (C=>25 to 50%)”. Besides, the IC50 in series [2] was at most 50 nM. Further, the “% inhibition (PI3kδ) 100 nM” value in series [2] (100 nM (Examples 60-137), 0.1 µM) is on record as “B (B=>50 to 75%)”.
In turn, `COc1nc(N[C@@H](C)c2oc3cccc(F)c3c(=O)c2-c2cccc(F)c2)c2nc[nH]c2n1` (single isomer, unassigned) [Example 134] displayed a melting point of 186 to 189 °C. This compound registered an inhibition at 0.1 µM in series [1] (100 nM (Examples 60-137)) of 0 to 25%. Besides, the inhibition at 0.1 µM in series [2] (100 nM (Examples 60-137)) was in the range of 25 to 50%.
`CC(c1oc2cccc(F)c2c(=O)c1-c1cccc(F)c1)n1nc(N2CCCC2)c2c(N)ncnc21` (stereo not drawn) [Example 47, 2-(1-(4-amino-3-(pyrrolidin-1-yl)-1H-pyrazolo[3,4-d]pyrimidin-1-yl)ethyl)-5-fluoro-3-(3-fluorophenyl)-4H-chromen-4-one] yielded a melting point of 203 to 205 °C. The inhibition at 0.3 µM in series [1] lay within 0 to 25%. The same compound gave an inhibition at 0.3 µM in series [2] of 0 to 25%.
Compound `CC(c1oc2cccc(F)c2c(=O)c1-c1cccc(F)c1)n1cnc2c(N3CCOCC3)ncnc21` (stereo not drawn) (as salt: potassium) [Example 119, 5-fluoro-3-(3-fluorophenyl)-2-(1-(6-morpholino-9H-purin-9-yl)ethyl)-4H-chromen-4-one] gave a melting point of 239 to 241 °C.
For `CC(c1oc2cccc(F)c2c(=O)c1-c1cccc(F)c1)n1nc(-c2ccc(NCCO)c(F)c2)c2c(N)ncnc21` (stereo not drawn) [Example 22, 2-(1-(4-amino-3-(3-fluoro-4-(2-hydroxyethylamino)phenyl)-1H-pyrazolo[3,4-d]pyrimidin-1-yl)ethyl)-5-fluoro-3-(3-fluorophenyl)-4H-chromen-4-one], the inhibition at 1 µM in series [3] is 25 to 50%; in series [4], 0 to 25%. Moreover, the results for the inhibition at 0.3 µM in series [1] and in series [2] were 25 to 50% and 75 to 100%, respectively.
As for `CC(C)Oc1ccc(-c2nn(C(C)c3oc4cccc(F)c4c(=O)c3-c3ccccc3)c3ncnc(N)c23)cc1F` (single isomer, unassigned) [Example 101], the figures for the inhibition at 1 µM in series [3] and in series [4] were 50 to 75% and 25 to 50%, respectively. This compound also showed an IC50 in series [1] of 100 to 300 nM. The inhibition at 0.1 µM in series [1] (100 nM (Examples 60-137)) is 50 to 75%; in series [2] (100 nM (Examples 60-137)) it was 0 to 25%.
As to `Cc1n[nH]c2cc(-c3nn(C(C)c4oc5cccc(F)c5c(=O)c4-c4cccc(F)c4)c4ncnc(N)c34)ccc12` (stereo not drawn) [Example 9, 2-(1-(4-amino-3-(3-methyl-1H-indazol-6-yl)-1H-pyrazolo[3,4-d]pyrimidin-1-yl)ethyl)-5-fluoro-3-(3-fluorophenyl)-4H-chromen-4-one], the inhibition at 1 µM in series [3] and in series [4] was 25 to 50% throughout. For the same compound, the IC50 in series [1] was 50 to 100 nM; in series [2] it was at most 50 nM. The inhibition at 0.3 µM in series [1] and in series [2] was 75 to 100% in each case.
As for `Cc1cc(-c2nn(C(C)c3oc4cccc(F)c4c(=O)c3-c3cccc(F)c3)c3ncnc(N)c23)ccc1OC(C)C` (stereo not drawn) [Example 50, 2-(1-(4-amino-3-(4-isopropoxy-3-methylphenyl)-1H-pyrazolo[3,4-d]pyrimidin-1-yl)ethyl)-5-fluoro-3-(3-fluorophenyl)-4H-chromen-4-one], the “% inhibition (PI3kα) 1 uM” value in series [3] is given as “D (D=0 to 25%)”. In addition, the inhibition at 0.3 µM in series [1] is 50 to 75%; in series [2], 75 to 100%. For the same compound, the “% inhibition (PI3kβ) 1 uM” value in series [4] is listed as “C (C=>25 to 50%)”.

These data come from US11020399B2, “Intermediates useful in the synthesis of compounds as modulators of protein kinases” (Rhizen Pharmaceuticals SA, priority 2011, dated 2021).
